{"source": "patent US4281136A", "about": "“2-Alkyl-3-haloisothiazolium salts and their derivatives” (Givaudan Corporation, priority 1978, dated 1981)", "key": {"[1]": {"system": "Aureobasidium pullulans", "test": "preservative for latex paints", "format": "cell-based", "conditions": "for Surface (growth on the surface of painted square): none, medium or heavy; for Zone (zone of inhibition): listed as CH3, Cl, Cl", "procedure": "Various quantities of the chemical were incorporated into a white exterior vinyl acetate paint. Whatman #30 filter paper was painted with one coat of paint on each side. One inch squares were cut and placed in Petri dishes on a malt agar.\nThe surface of both the agar and the painted squares were inoculated with a spore suspension of Aureobasidium pullulans. The plates were examined for zones of inhibition and surface growth after three weeks incubation in a humidity chamber at 27°-28°.\nVarious quantities of 4,5-dichloro-2-methyl-4-isothiazolin-3-thione were incorporated into a white exterior vinyl acetate paint and tested as described in Example IV."}, "[2]": {"system": "Ps. aeruginosa", "test": "preservative for cutting oil emulsions", "format": "cell-based", "conditions": "for Minimum Inhibitory Concentration: listed as CH3, Cl; for MIC: Pseudomonas aeruginosa", "procedure": "Various aliquots of a 6% solution of the chemical in ethanol were added to cutting oil emulsions prepared by diluting Kutwell 30 cutting oil concentrate 1 to 30 with water. These samples were inoculated with a culture of Ps. aeruginosa and incubated at 28° on a rotary shaker. At weekly intervals the samples were examined for microorganisms and then reinoculated and incubated."}, "[3]": {"conditions": "168 h, cutting oil emulsion, incubation 1 week, 28°, read-out: Minimum Inhibitory Concentration"}, "[4]": {"conditions": "336 h, cutting oil emulsion, incubation 2 weeks, 28°, read-out: Minimum Inhibitory Concentration"}, "[5]": {"conditions": "504 h, cutting oil emulsion, incubation 3 weeks, 28°, read-out: Minimum Inhibitory Concentration"}, "[6]": {"conditions": "672 h, cutting oil emulsion, incubation 4 weeks, 28°, read-out: Minimum Inhibitory Concentration"}, "[7]": {"conditions": "168 h, read-out: Minimum Inhibitory Concentration, cutting oil emulsion, incubation 1 week, 28°"}, "[8]": {"conditions": "336 h, read-out: Minimum Inhibitory Concentration, cutting oil emulsion, incubation 2 weeks, 28°"}, "[9]": {"conditions": "504 h, read-out: Minimum Inhibitory Concentration, cutting oil emulsion, incubation 3 weeks, 28°"}, "[10]": {"conditions": "672 h, read-out: Minimum Inhibitory Concentration, cutting oil emulsion, incubation 4 weeks, 28°"}}, "note": "Read-outs that look alike come from different tables or passages of the source."}
{"molecule": "CC[n+]1sc(Cl)c(Cl)c1Cl", "note": "[Et, Cl, Cl, Cl, O3SCF3]", "values": [{"measurement": "zone of inhibition at 0.25 %", "setting": "[1]; Aureobasidium pullulans, 504 h, Conc. 0.25% in vinyl acetate paint, three weeks, 27°-28°, read-out: Zone (zone of inhibition)", "value": 20, "unit": "mm"}, {"measurement": "zone of inhibition at 0.5 %", "setting": "[1]; Aureobasidium pullulans, 504 h, Conc. 0.5% in vinyl acetate paint, three weeks, 27°-28°, read-out: Zone (zone of inhibition)", "value": 20, "unit": "mm"}, {"measurement": "Surface (growth on the surface of painted square)", "setting": "[1]; Conc. 0.25% in vinyl acetate paint, three weeks, 27°-28°", "value": "None"}, {"measurement": "Surface (growth on the surface of painted square)", "setting": "[1]; Conc. 0.5% in vinyl acetate paint, three weeks, 27°-28°", "value": "None"}]}
{"molecule": "C[n+]1sc(Cl)c(Cl)c1Cl", "note": "[No. 1 (Table I), 2-Methyl-3,4,5-trichloroisothiazolium fluorosulfonate]", "values": [{"measurement": "zone of inhibition at 0.5 %", "setting": "[1]; Aureobasidium pullulans, 504 h, read-out: Zone (zone of inhibition), Conc. 0.5% in vinyl acetate paint, three weeks, 27°-28°", "value": "> 20", "unit": "mm"}, {"measurement": "Zone (zone of inhibition)", "setting": "[1]; Conc. 0.25% in vinyl acetate paint, three weeks, 27°-28°, O3SF", "value": 0, "unit": "mm"}, {"measurement": "Minimum Inhibitory Concentration", "setting": "[2]; cutting oil emulsion, incubation 1 week, 28°, Cl, O3SF", "value": "< 16", "unit": "µg/mL"}, {"measurement": "Minimum Inhibitory Concentration", "setting": "[2]; cutting oil emulsion, incubation 2 weeks, 28°, Cl, O3SF", "value": "< 16", "unit": "µg/mL"}, {"measurement": "Minimum Inhibitory Concentration", "setting": "[2]; cutting oil emulsion, incubation 3 weeks, 28°, Cl, O3SF", "value": "< 16", "unit": "µg/mL"}, {"measurement": "Minimum Inhibitory Concentration", "setting": "[2]; cutting oil emulsion, incubation 4 weeks, 28°, Cl, O3SF", "value": "< 16", "unit": "µg/mL"}]}
{"molecule": "CCn1sc(Cl)c(Cl)c1=S", "note": "[No. 2 (Table VIII)]", "values": [{"measurement": "MIC", "setting": "[2]; [3]", "value": 16, "unit": "µg/mL"}, {"measurement": "MIC", "setting": "[2]; [4]", "value": 32, "unit": "µg/mL"}, {"measurement": "MIC", "setting": "[2]; [5]", "value": 62, "unit": "µg/mL"}, {"measurement": "MIC", "setting": "[2]; [6]", "value": 62, "unit": "µg/mL"}]}
{"molecule": "C[n+]1sc(Cl)c(Cl)c1Cl", "note": "[No. 3 (Table I), 2-Methyl-3,4,5-trichloroisothiazolium hexachloroantimonate]", "values": [{"measurement": "Zone (zone of inhibition)", "setting": "[1]; Conc. 0.25% in vinyl acetate paint, three weeks, 27°-28°, SbCl6", "value": 20, "unit": "mm"}, {"measurement": "Zone (zone of inhibition)", "setting": "[1]; Conc. 0.5% in vinyl acetate paint, three weeks, 27°-28°, SbCl6", "value": 20, "unit": "mm"}, {"measurement": "Minimum Inhibitory Concentration", "setting": "[2]; cutting oil emulsion, incubation 1 week, 28°, Cl, SbCl6", "value": 2, "unit": "µg/mL"}, {"measurement": "Minimum Inhibitory Concentration", "setting": "[2]; cutting oil emulsion, incubation 2 weeks, 28°, Cl, SbCl6", "value": 2, "unit": "µg/mL"}, {"measurement": "Minimum Inhibitory Concentration", "setting": "[2]; cutting oil emulsion, incubation 3 weeks, 28°, Cl, SbCl6", "value": 2, "unit": "µg/mL"}, {"measurement": "Minimum Inhibitory Concentration", "setting": "[2]; cutting oil emulsion, incubation 4 weeks, 28°, Cl, SbCl6", "value": 64, "unit": "µg/mL"}]}
{"molecule": "Cn1sccc1=S", "note": "[No. 3 (Table VIII)]", "values": [{"measurement": "MIC", "setting": "[2]; [7]", "value": 125, "unit": "µg/mL"}, {"measurement": "MIC", "setting": "[2]; [8]", "value": 250, "unit": "µg/mL"}, {"measurement": "MIC", "setting": "[2]; [9]", "value": 250, "unit": "µg/mL"}, {"measurement": "MIC", "setting": "[2]; [10]", "value": 250, "unit": "µg/mL"}]}
{"molecule": "C[n+]1sc(Cl)c(Cl)c1Cl.O=S(=O)([O-])C(F)(F)F", "note": "[No. 4 (Table I), 2-Methyl-3,4,5-trichloroisothiazolium trifluoromethane sulfonate]", "values": [{"measurement": "MIC", "setting": "[2]; [7]", "value": 2, "unit": "µg/mL"}, {"measurement": "MIC", "setting": "[2]; [8]", "value": 2, "unit": "µg/mL"}, {"measurement": "MIC", "setting": "[2]; [9]", "value": 16, "unit": "µg/mL"}, {"measurement": "MIC", "setting": "[2]; [10]", "value": 64, "unit": "µg/mL"}]}
{"molecule": "Cn1scc(Cl)c1=S", "note": "[No. 4 (Table VIII)]", "values": [{"measurement": "MIC", "setting": "[2]; [7]", "value": "< 32", "unit": "µg/mL"}, {"measurement": "MIC", "setting": "[2]; [8]", "value": 62, "unit": "µg/mL"}, {"measurement": "MIC", "setting": "[2]; [9]", "value": 62, "unit": "µg/mL"}, {"measurement": "MIC", "setting": "[2]; [10]", "value": 62, "unit": "µg/mL"}]}
{"molecule": "CCOC(=O)c1sn(C)c(=S)c1Cl", "note": "[No. 5 (Table VIII)]", "values": [{"measurement": "MIC", "setting": "[2]; [3]", "value": 250, "unit": "µg/mL"}, {"measurement": "MIC", "setting": "[2]; [4]", "value": 125, "unit": "µg/mL"}, {"measurement": "MIC", "setting": "[2]; [5]", "value": 125, "unit": "µg/mL"}, {"measurement": "MIC", "setting": "[2]; [6]", "value": 62, "unit": "µg/mL"}]}
{"molecule": "Cn1sc(C#N)c(Cl)c1=S", "note": "[No. 6 (Table VIII)]", "values": [{"measurement": "MIC", "setting": "[2]; [3]", "value": 16, "unit": "µg/mL"}, {"measurement": "MIC", "setting": "[2]; [4]", "value": 125, "unit": "µg/mL"}, {"measurement": "MIC", "setting": "[2]; [5]", "value": 250, "unit": "µg/mL"}, {"measurement": "MIC", "setting": "[2]; [6]", "value": 250, "unit": "µg/mL"}]}
{"molecule": "CC[n+]1sc(Cl)c(Cl)c1Cl.F[B-](F)(F)F", "note": "[No. 7 (Table I), 2-Ethyl-3,4,5-trichloroisothiazolium tetrafluoroborate]", "values": [{"measurement": "MIC", "setting": "[2]; [3]", "value": 4, "unit": "µg/mL"}, {"measurement": "MIC", "setting": "[2]; [4]", "value": 8, "unit": "µg/mL"}, {"measurement": "MIC", "setting": "[2]; [5]", "value": 8, "unit": "µg/mL"}, {"measurement": "MIC", "setting": "[2]; [6]", "value": 32, "unit": "µg/mL"}]}
{"molecule": "CCC[n+]1sc(Cl)c(Cl)c1Cl.O=S(=O)([O-])C(F)(F)F", "note": "[No. 10 (Table I), 2-Propyl-3,4,5-trichloroisothiazolium trifluoromethane sulfonate]", "values": [{"measurement": "MIC", "setting": "[2]; [3]", "value": "< 32", "unit": "µg/mL"}, {"measurement": "MIC", "setting": "[2]; [4]", "value": "< 32", "unit": "µg/mL"}, {"measurement": "MIC", "setting": "[2]; [5]", "value": "< 32", "unit": "µg/mL"}, {"measurement": "MIC", "setting": "[2]; [6]", "value": "< 32", "unit": "µg/mL"}]}
{"molecule": "C[n+]1sccc1Cl", "note": "[No. 13 (Table I), 3-Chloro-2-methylisothiazolium fluorosulfonate]", "values": [{"measurement": "Minimum Inhibitory Concentration", "setting": "[2]; cutting oil emulsion, incubation 1 week, 28°, H, O3SF", "value": 32, "unit": "µg/mL"}, {"measurement": "Minimum Inhibitory Concentration", "setting": "[2]; cutting oil emulsion, incubation 2 weeks, 28°, H, O3SF", "value": 32, "unit": "µg/mL"}, {"measurement": "Minimum Inhibitory Concentration", "setting": "[2]; cutting oil emulsion, incubation 3 weeks, 28°, H, O3SF", "value": 32, "unit": "µg/mL"}, {"measurement": "Minimum Inhibitory Concentration", "setting": "[2]; cutting oil emulsion, incubation 4 weeks, 28°, H, O3SF", "value": 32, "unit": "µg/mL"}]}
{"molecule": "C[n+]1sccc1Cl", "note": "[No. 14 (Table I)]", "values": [{"measurement": "Minimum Inhibitory Concentration", "setting": "[2]; cutting oil emulsion, incubation 1 week, 28°, H, O3SOMe", "value": 64, "unit": "µg/mL"}, {"measurement": "Minimum Inhibitory Concentration", "setting": "[2]; cutting oil emulsion, incubation 2 weeks, 28°, H, O3SOMe", "value": 64, "unit": "µg/mL"}, {"measurement": "Minimum Inhibitory Concentration", "setting": "[2]; cutting oil emulsion, incubation 3 weeks, 28°, H, O3SOMe", "value": 64, "unit": "µg/mL"}, {"measurement": "Minimum Inhibitory Concentration", "setting": "[2]; cutting oil emulsion, incubation 4 weeks, 28°, H, O3SOMe", "value": 64, "unit": "µg/mL"}]}
{"molecule": "C[n+]1sccc1Cl.O=[N+]([O-])[O-]", "note": "[No. 15 (Table I), 2-Methyl-3-chloroisothiazolium nitrate]", "values": [{"measurement": "MIC", "setting": "[2]; [7]", "value": 8, "unit": "µg/mL"}, {"measurement": "MIC", "setting": "[2]; [8]", "value": 8, "unit": "µg/mL"}, {"measurement": "MIC", "setting": "[2]; [9]", "value": 8, "unit": "µg/mL"}, {"measurement": "MIC", "setting": "[2]; [10]", "value": 8, "unit": "µg/mL"}]}
